Results published in patent publication US20250313533A1, “QUINOLINE CARBOXYLIC ACID ESTER COMPOUND AND PREPARATION METHOD AND USE THEREOF” (priority 2019, published 2025).

Assays:
cucumber seedlings = assay: Safety for plant growth after application; type: in vivo; details: dosage 200 ppm
Procedure, shortened: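 Read-outs are chlorophyll content, leaf area and the rate of increase in plant height, all measured on cucumber seedlings kept in pots indoors after application.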

[1] = system: pathogenic bacteria causing bacterial angular leaf spot in cucumbers; assay: In vitro bactericidal activity, bacterial angular leaf spot in cucumbers; type: cell-based, pseudomonas; details: read-out: inhibitory rate; for inhibition at 1 ppm: dosage 1 ppm; for inhibition at 5 ppm: dosage 5 ppm
bacterial blight in rice = assay: whole plant or invertebrate; details: Oryza sativa, read-out: efficacy against bacterial blight in rice
[2] = system: indoor potted cucumber seedlings; assay: Effect of improving growth and development of crops; type: in vivo; set-up: Rate of growth rate increase (%): concentration or dose not given beside the values; details: versus blank control; for Rate of chlorophyll content increase (%) / Rate of leaf area increase (%): 14 days after application; for Rate of growth rate increase (%): plant height 14 days after application; for Rate of leaf area increase (%): second leaf
Procedure, shortened: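 Readouts: rate of increase in height growth, leaf area and SPAD chlorophyll content. Measurements were made before compound application and again 14 days afterwards, with leaf area computed from second-leaf dimensions.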

[3] = system: fruit blotch in watermelons; assay: whole plant or invertebrate; details: read-out: efficacy against fruit blotch in watermelons
[4] = system: pathogenic bacteria causing bacterial wilt in cassava; assay: organism not typed; type: cell-based; details: read-out: inhibitory rate
[5] = system: pathogenic bacteria causing fruit blotch in watermelons; assay: In vitro bactericidal activity, fruit blotch in watermelons; type: cell-based, acidovorax; details: read-out: inhibitory rate; for inhibition at 1 ppm: dosage 1 ppm; for inhibition at 5 ppm: dosage 5 ppm
black shank in potatoes = assay: Living crops in vivo protective activity, potatoes (root irrigation); details: Solanum tuberosum, read-out: efficacy against black shank in potatoes; for pest or weed control at 5 ppm: dosage 5 ppm; for pest or weed control at 10 ppm: dosage 10 ppm
Protocol: Root irrigation was carried out on the potatoes for tests according to the designed concentration of the agents. The dosage for each plant was 200 mL and was kept consistent (also for the control). The black shank bacteria were inoculated on the second day after the application. The results were investigated according to the disease condition.

[6] = system: bacterial wilt in tobacco; assay: whole plant or invertebrate; details: Nicotiana tabacum, read-out: efficacy against bacterial wilt in tobacco
[7] = system: stem rot in sweet potatoes; assay: whole plant or invertebrate; details: read-out: efficacy against stem rot in sweet potatoes
[8] = system: soft rot in Chinese cabbages; assay: whole plant or invertebrate; details: 48 h, read-out: efficacy against soft rot in Chinese cabbages
[9] = system: pathogenic bacteria causing fire blight in pears; assay: In vitro bactericidal activity, fire blight in pears; type: cell-based, erwinia; details: Erwinia, read-out: inhibitory rate; for inhibition at 1 ppm: dosage 1 ppm; for inhibition at 5 ppm: dosage 5 ppm
[10] = system: pathogenic bacteria causing bacterial wilt in tobacco; assay: whole plant or invertebrate; type: cell-based, ralstonia; details: read-out: inhibitory rate
[11] = system: pathogenic bacteria causing black rot in Chinese cabbages; assay: In vitro bactericidal activity, black rot in Chinese cabbages; type: cell-based, xanthomonas; details: Xanthomonas, read-out: inhibitory rate; for inhibition at 1 ppm: dosage 1 ppm; for inhibition at 5 ppm: dosage 5 ppm
[12] = system: pathogenic bacteria causing bacterial blight in rice; assay: whole plant or invertebrate; type: cell-based, xanthomonas; details: read-out: inhibitory rate
[13] = system: pathogenic bacteria causing stem rot in sweet potatoes; assay: In vitro bactericidal activity, stem rot in sweet potatoes; type: cell-based, dikia; details: read-out: inhibitory rate; for inhibition at 1 ppm: dosage 1 ppm; for inhibition at 5 ppm: dosage 5 ppm
[14] = system: pathogenic bacteria causing black shank in potatoes; assay: In vitro bactericidal activity, black shank in potatoes; type: cell-based; details: read-out: inhibitory rate; for inhibition at 1 ppm: dosage 1 ppm; for inhibition at 5 ppm: dosage 5 ppm

## COCCOC(=O)c1cn(C2CC2)c2cc(SCC(F)(F)F)c(F)cc2c1=O [Compound 390]
Cucumber seedlings
  safety for plant growth (discoloration, necrosis, wilt, malformation): safe for plant growth
[1]
  inhibition at 1 ppm: ≥ 90%
  inhibition at 5 ppm: ≥ 90%
Bacterial blight in rice
  pest or weed control at 5 ppm: ≥ 90%
  pest or weed control at 10 ppm: ≥ 90%
[2]
  Rate of chlorophyll content increase (%): 17%
  Rate of growth rate increase (%): 13%
  Rate of leaf area increase (%): 15%
[3]
  pest or weed control at 5 ppm: ≥ 90%
  pest or weed control at 10 ppm: ≥ 90%
[4]
  inhibition at 1 ppm: ≥ 90%
  inhibition at 5 ppm: ≥ 90%
[5]
  inhibition at 1 ppm: ≥ 90%
  inhibition at 5 ppm: ≥ 90%
Black shank in potatoes
  pest or weed control at 5 ppm: ≥ 90%
  pest or weed control at 10 ppm: ≥ 90%
[6]
  pest or weed control at 5 ppm: ≥ 90%
  pest or weed control at 10 ppm: ≥ 90%
[7]
  pest or weed control at 5 ppm: ≥ 90%
  pest or weed control at 10 ppm: ≥ 90%
[8]
  pest or weed control at 5 ppm: ≥ 90%
  pest or weed control at 10 ppm: ≥ 90%
[9]
  inhibition at 1 ppm: ≥ 90%
  inhibition at 5 ppm: ≥ 90%
[10]
  inhibition at 1 ppm: ≥ 90%
  inhibition at 5 ppm: ≥ 90%
[11]
  inhibition at 1 ppm: ≥ 90%
  inhibition at 5 ppm: ≥ 90%
[12]
  inhibition at 1 ppm: ≥ 90%
  inhibition at 5 ppm: ≥ 90%
[13]
  inhibition at 1 ppm: ≥ 90%
  inhibition at 5 ppm: ≥ 90%
[14]
  inhibition at 1 ppm: ≥ 90%
  inhibition at 5 ppm: ≥ 90%

## COCCOC(=O)c1cn(C2CC2)c2cc(OCC(F)(F)F)c(F)cc2c1=O [Compound 292, 2-methoxyethyl 1-cyclopropyl-6-fluoro-4-oxo-7-(2,2,2-trifluoroethoxy)-1,4-dihydroquinoline-3-carboxylate]
Cucumber seedlings
  safety for plant growth (discoloration, necrosis, wilt, malformation): safe for plant growth
[1]
  inhibition at 1 ppm: ≥ 90%
  inhibition at 5 ppm: ≥ 90%
Bacterial blight in rice
  pest or weed control at 5 ppm: ≥ 90%
  pest or weed control at 10 ppm: ≥ 90%
[2]
  Rate of chlorophyll content increase (%): 16%
  Rate of growth rate increase (%): 15%
  Rate of leaf area increase (%): 15%
[3]
  pest or weed control at 5 ppm: ≥ 90%
  pest or weed control at 10 ppm: ≥ 90%
[4]
  inhibition at 1 ppm: ≥ 90%
  inhibition at 5 ppm: ≥ 90%
[5]
  inhibition at 1 ppm: ≥ 90%
  inhibition at 5 ppm: ≥ 90%
Black shank in potatoes
  pest or weed control at 5 ppm: ≥ 90%
  pest or weed control at 10 ppm: ≥ 90%
[6]
  pest or weed control at 5 ppm: ≥ 90%
  pest or weed control at 10 ppm: ≥ 90%
[7]
  pest or weed control at 5 ppm: ≥ 90%
  pest or weed control at 10 ppm: ≥ 90%
[8]
  pest or weed control at 5 ppm: ≥ 90%
  pest or weed control at 10 ppm: ≥ 90%
[9]
  inhibition at 1 ppm: ≥ 90%
  inhibition at 5 ppm: ≥ 90%
[10]
  inhibition at 1 ppm: ≥ 90%
  inhibition at 5 ppm: ≥ 90%
[11]
  inhibition at 1 ppm: ≥ 90%
  inhibition at 5 ppm: ≥ 90%
[12]
  inhibition at 1 ppm: ≥ 90%
  inhibition at 5 ppm: ≥ 90%
[13]
  inhibition at 1 ppm: ≥ 90%
  inhibition at 5 ppm: ≥ 90%
[14]
  inhibition at 1 ppm: ≥ 90%
  inhibition at 5 ppm: ≥ 90%
